Results published in PubChem BioAssay AID330 (DTP/NCI, 2004).
“And” between values parts separate entries of the source, which are not always exact repeats. Identical values can stand only once. Inconclusive results and toxic doses are left out. The calls were made as follows: active = survival T/C of 150% or more; inactive = T/C below 125% in these data.

System: P388 leukemia ip, CD2F1 mice, survival T/C
Assay: NCI In Vivo Anticancer Drug Screen. Data for tumor model P388 Leukemia (intraperitoneal) in CD2F1 (CDF1) mice
Settings: endpoint: median survival time, higher = longer survival
Summary of the method: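 Mice carrying the transplanted tumor received test compound or vehicle. Survival was recorded in each group, and the value is the treated-group measurement divided by that of the vehicle-treated control group.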

[1] = dose: 60.0 mg/kg/injection, schedule: Q01DX005 (ip), vehicle: saline
[2] = dose: 120.0 mg/kg/injection, schedule: Q01DX005 (ip), vehicle: saline
[3] = dose: 240.0 mg/kg/injection, schedule: Q01DX005 (ip), vehicle: saline

Measured: T/C

CCCCCCCCCCCCCCCCSc1ccc(C)cc1
inactive: dose: 25.0 mg/kg/injection, schedule: Q04DX003 (ip), vehicle: other 105 % of control | dose: 50.0 mg/kg/injection, schedule: Q04DX003 (ip), vehicle: other 95 % of control | dose: 100.0 mg/kg/injection, schedule: Q04DX003 (ip), vehicle: other 100 % of control

Nc1cccc(S(=O)(=O)Nc2c(N)nc(SCC(=O)O)[nH]c2=O)c1
inactive: dose: 60.0 mg/kg/injection, schedule: Q01DX005 (ip), vehicle: Klucel (hydroxypropylcellulose) (HPC) 100 % of control | dose: 120.0 mg/kg/injection, schedule: Q01DX005 (ip), vehicle: Klucel (hydroxypropylcellulose) (HPC) 98 % of control | dose: 240.0 mg/kg/injection, schedule: Q01DX005 (ip), vehicle: Klucel (hydroxypropylcellulose) (HPC) 98 % of control

CC1(C)OC(=O)C(CC(=O)O)O1 (centres undefined)
inactive: [1] 105 % of control | [2] 100 % of control | [3] 100 % of control

COC(=O)C1(C)C(OC(C)=O)CC2C3C(CC4CC(OC(C)=O)CCC42C)OC(=O)CC31 (centres undefined)
inactive: dose: 0.25 mg/kg/injection, schedule: Q01DX009 (ip), vehicle: distilled water + Tween-80 99 % of control | dose: 0.5 mg/kg/injection, schedule: Q01DX009 (ip), vehicle: distilled water + Tween-80 101 % of control | dose: 1.0 mg/kg/injection, schedule: Q01DX009 (ip), vehicle: distilled water + Tween-80 102 % of control | dose: 2.0 mg/kg/injection, schedule: Q01DX009 (ip), vehicle: distilled water + Tween-80 104 % of control | dose: 4.0 mg/kg/injection, schedule: Q01DX009 (ip), vehicle: distilled water + Tween-80 100 % of control and 104 % of control | dose: 8.0 mg/kg/injection, schedule: Q01DX009 (ip), vehicle: distilled water + Tween-80 106 % of control and 111 % of control | dose: 16.0 mg/kg/injection, schedule: Q01DX009 (ip), vehicle: distilled water + Tween-80 94 % of control | dose: 32.0 mg/kg/injection, schedule: Q01DX009 (ip), vehicle: distilled water + Tween-80 87 % of control | dose: 64.0 mg/kg/injection, schedule: Q01DX009 (ip), vehicle: distilled water + Tween-80 100 % of control

OC1CCCCC1C1CCCCC1O (centres undefined)
inactive: dose: 100.0 mg/kg/injection, schedule: Q01DX001 (ip), vehicle: saline with Tween-80 105 % of control | dose: 200.0 mg/kg/injection, schedule: Q01DX001 (ip), vehicle: saline with Tween-80 99 % of control | dose: 400.0 mg/kg/injection, schedule: Q01DX001 (ip), vehicle: saline with Tween-80 104 % of control

CCC(SC)C(=O)N(C)c1ccccc1 (centres undefined)
inactive: dose: 6.25 mg/kg/injection, schedule: Q01DX009 (ip), vehicle: saline 104 % of control | dose: 12.5 mg/kg/injection, schedule: Q01DX009 (ip), vehicle: saline 107 % of control | dose: 25.0 mg/kg/injection, schedule: Q01DX009 (ip), vehicle: saline with Tween-80 90 % of control | dose: 25.0 mg/kg/injection, schedule: Q01DX009 (ip), vehicle: saline 114 % of control | dose: 100.0 mg/kg/injection, schedule: Q01DX009 (ip), vehicle: saline with Tween-80 109 % of control

Cc1ccc(/C=C/C(=O)C(C)CN(C)C)cc1 (centres undefined)
inactive: dose: 15.0 mg/kg/injection, schedule: Q01DX005 (ip), vehicle: saline 100 % of control | dose: 30.0 mg/kg/injection, schedule: Q01DX005 (ip), vehicle: saline 99 % of control | [1] 98 % of control and 100 % of control | [2] 100 % of control and 106 % of control and 107 % of control | [3] 119 % of control

O=C(Nc1ccc(CCc2ccc(NC(=O)C34CC5CC(CC(C5)C3)C4)cc2)cc1)C12CC3CC(CC(C3)C1)C2
inactive: dose: 50.0 mg/kg/injection, schedule: Q01DX005 (ip), vehicle: saline with Tween-80 96 % of control | dose: 100.0 mg/kg/injection, schedule: Q01DX005 (ip), vehicle: saline with Tween-80 90 % of control

O=C1NC(=O)C2(CCCC2=Nc2ccc(Br)cc2)C2C=CN(Cc3ccccc3)C=C12 (centres undefined)
inactive: dose: 25.0 mg/kg/injection, schedule: Q04DX003 (ip), vehicle: saline 107 % of control | dose: 50.0 mg/kg/injection, schedule: Q04DX003 (ip), vehicle: saline 107 % of control | dose: 100.0 mg/kg/injection, schedule: Q04DX003 (ip), vehicle: saline 105 % of control and 110 % of control | dose: 200.0 mg/kg/injection, schedule: Q04DX003 (ip), vehicle: saline 107 % of control

CCOC(=O)C1C2CCC(O2)C1C#N (centres undefined)
inactive: dose: 15.0 mg/kg/injection, schedule: Q01DX005 (ip), vehicle: saline with Tween-80 100 % of control | dose: 30.0 mg/kg/injection, schedule: Q01DX005 (ip), vehicle: saline with Tween-80 101 % of control | dose: 60.0 mg/kg/injection, schedule: Q01DX005 (ip), vehicle: saline with Tween-80 93 % of control

Cc1cccc(-c2nc3c(C)nc(-c4ccccc4)nc3n2Nc2ccccc2)c1
inactive: dose: 100.0 mg/kg/injection, schedule: Q01DX001 (ip), vehicle: Klucel (hydroxypropylcellulose) (HPC) 87 % of control

COc1ccc2c(c1OC)C(O)(Cc1ccccc1)OC2C1c2c(cc3c(c2OC)OCO3)CCN1C (centres undefined)
inactive: dose: 50.0 mg/kg/injection, schedule: Q01DX005 (ip), vehicle: Klucel (hydroxypropylcellulose) (HPC) 106 % of control | dose: 100.0 mg/kg/injection, schedule: Q01DX005 (ip), vehicle: Klucel (hydroxypropylcellulose) (HPC) 104 % of control | dose: 200.0 mg/kg/injection, schedule: Q01DX005 (ip), vehicle: Klucel (hydroxypropylcellulose) (HPC) 95 % of control
